Reference: PubChem BioAssay AID1918931 (Molecular Pharmacology Branch, DTP, NCI, 2023)
“And” between values parts separate entries of the source, which are not always exact repeats. Identical values can stand only once.

Tested on: 138582-337-R-J1-PDC complex spheroid viability
Experiment: Anticancer human tumor 138582-337-R-J1-PDC patient-derived Merkel cell tumor cell line growth inhibition
Conditions: for viability, T/C: stronger effect = lower value
How it was run: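 Complex spheroids of tumor cells with HUVEC and human MSCs, exposed to iadademstat combined with other agents. Each agent tested in half-log steps from near clinical Cmax (else 10 microM top), DMSO ≤0.25%.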

[1] = curve of first compound, second compound 0.1 µM
[2] = curve of first compound, second compound 0.316 µM
[3] = curve of first compound, second compound 1 µM
[4] = curve of first compound, second compound 3.16 µM
[5] = curve of first compound, second compound 10 µM
[6] = second compound 0.1 µM, first compound 0.00316 µM
[7] = second compound 0.1 µM, first compound 0.01 µM
[8] = second compound 0.1 µM, first compound 0.0316 µM
[9] = second compound 0.1 µM, first compound 0.1 µM
[10] = second compound 0.1 µM, first compound 0.316 µM
[11] = second compound 0.1 µM, first compound 1 µM
[12] = second compound 0.316 µM, first compound 0.00316 µM
[13] = second compound 0.316 µM, first compound 0.01 µM
[14] = second compound 0.316 µM, first compound 0.0316 µM
[15] = second compound 0.316 µM, first compound 0.1 µM
[16] = second compound 0.316 µM, first compound 0.316 µM
[17] = second compound 0.316 µM, first compound 1 µM
[18] = second compound 1 µM, first compound 0.00316 µM
[19] = second compound 1 µM, first compound 0.01 µM
[20] = second compound 1 µM, first compound 0.0316 µM
[21] = second compound 1 µM, first compound 0.1 µM
[22] = second compound 1 µM, first compound 0.316 µM
[23] = second compound 1 µM, first compound 1 µM
[24] = second compound 3.16 µM, first compound 0.00316 µM
[25] = second compound 3.16 µM, first compound 0.01 µM
[26] = second compound 3.16 µM, first compound 0.0316 µM
[27] = second compound 3.16 µM, first compound 0.1 µM
[28] = second compound 3.16 µM, first compound 0.316 µM
[29] = second compound 3.16 µM, first compound 1 µM
[30] = second compound 10 µM, first compound 0.00316 µM
[31] = second compound 10 µM, first compound 0.01 µM
[32] = second compound 10 µM, first compound 0.0316 µM
[33] = second compound 10 µM, first compound 0.1 µM
[34] = second compound 10 µM, first compound 0.316 µM
[35] = second compound 10 µM, first compound 1 µM
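Throughout, for viability, T/C: 100% = DMSO vehicle control viability.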

CCN(c1cc(-c2ccc(CN3CCOCC3)cc2)cc(C(=O)NCc2c(C)cc(C)[nH]c2=O)c1C)C1CCOCC1 + NC1CC1c1ccc(-c2cccc(O)c2)cc1
IC50 [1]: > 3000 nM
IC50 [2]: > 3000 nM
IC50 [3]: > 3000 nM
IC50 [4]: > 3000 nM
IC50 [5]: > 3000 nM
viability, T/C (second compound 0.1 µM, first compound 0.00949 µM): 76.8%
viability, T/C (second compound 0.1 µM, first compound 0.03 µM): 69.5%
viability, T/C (second compound 0.1 µM, first compound 0.0949 µM): 53.6%
viability, T/C (second compound 0.1 µM, first compound 0.3 µM): 59.3%
viability, T/C (second compound 0.1 µM, first compound 0.949 µM): 66.9%
viability, T/C (second compound 0.1 µM, first compound 3 µM): 64.6%
viability, T/C (second compound 0.316 µM, first compound 0.00949 µM): 80.8%
viability, T/C (second compound 0.316 µM, first compound 0.03 µM): 81%
viability, T/C (second compound 0.316 µM, first compound 0.0949 µM): 77.9%
viability, T/C (second compound 0.316 µM, first compound 0.3 µM): 66.6%
viability, T/C (second compound 0.316 µM, first compound 0.949 µM): 59%
viability, T/C (second compound 0.316 µM, first compound 3 µM): 67.1%
viability, T/C (second compound 1 µM, first compound 0.00949 µM): 78.3%
viability, T/C (second compound 1 µM, first compound 0.03 µM): 72.7%
viability, T/C (second compound 1 µM, first compound 0.0949 µM): 77.1%
viability, T/C (second compound 1 µM, first compound 0.3 µM): 66.8%
viability, T/C (second compound 1 µM, first compound 0.949 µM): 64.7%
viability, T/C (second compound 1 µM, first compound 3 µM): 60.5%
viability, T/C (second compound 3.16 µM, first compound 0.00949 µM): 75.8%
viability, T/C (second compound 3.16 µM, first compound 0.03 µM): 84.9%
viability, T/C (second compound 3.16 µM, first compound 0.0949 µM): 82%
viability, T/C (second compound 3.16 µM, first compound 0.3 µM): 75.2%
viability, T/C (second compound 3.16 µM, first compound 0.949 µM): 59.4%
viability, T/C (second compound 3.16 µM, first compound 3 µM): 66.9%
viability, T/C (second compound 10 µM, first compound 0.00949 µM): 63.7%
viability, T/C (second compound 10 µM, first compound 0.03 µM): 91.8%
viability, T/C (second compound 10 µM, first compound 0.0949 µM): 74%
viability, T/C (second compound 10 µM, first compound 0.3 µM): 80.3%
viability, T/C (second compound 10 µM, first compound 0.949 µM): 61.4%
viability, T/C (second compound 10 µM, first compound 3 µM): 72.4%

COc1cc(Nc2ncc3c(n2)-c2ccc(Cl)cc2C(c2c(F)cccc2OC)=NC3)ccc1C(=O)O
viability, T/C (compound 0.00316 µM): 102% and 63.7%
viability, T/C (compound 0.01 µM): 82.4% and 67.3%
viability, T/C (compound 0.0316 µM): 76.8% and 63.6%
viability, T/C (compound 0.1 µM): 84.4% and 66.4%
viability, T/C (compound 0.316 µM): 79.4% and 61.6%
viability, T/C (compound 1 µM): 80.4% and 43.7%
IC50 (curve of compound): > 1000 nM

Nc1ncn(C2CC(O)C(CO)O2)c(=O)n1 (stereo not drawn) + NC1CC1c1ccc(-c2cccc(O)c2)cc1
IC50 [1]: > 1000 nM
IC50 [2]: > 1000 nM
IC50 [3]: > 1000 nM
IC50 [4]: > 1000 nM
IC50 [5]: > 1000 nM
viability, T/C [6]: 74%
viability, T/C [7]: 92%
viability, T/C [8]: 94.5%
viability, T/C [9]: 85.7%
viability, T/C [10]: 77.8%
viability, T/C [11]: 75.3%
viability, T/C [12]: 82.3%
viability, T/C [13]: 98.7%
viability, T/C [14]: 108%
viability, T/C [15]: 85.7%
viability, T/C [16]: 85.3%
viability, T/C [17]: 76.6%
viability, T/C [18]: 75.8%
viability, T/C [19]: 109%
viability, T/C [20]: 98.1%
viability, T/C [21]: 88.5%
viability, T/C [22]: 83%
viability, T/C [23]: 84.9%
viability, T/C [24]: 67.7%
viability, T/C [25]: 119%
viability, T/C [26]: 113%
viability, T/C [27]: 89.6%
viability, T/C [28]: 87.8%
viability, T/C [29]: 80.1%
viability, T/C [30]: 85.8%
viability, T/C [31]: 99.2%
viability, T/C [32]: 118%
viability, T/C [33]: 106%
viability, T/C [34]: 113%
viability, T/C [35]: 88.4%

COc1ccc([C@@H](O)c2cc(-c3ncnc4cc(N5CCOCC5)ccc34)c(F)cc2Cl)nn1
viability, T/C (compound 0.0316 µM): 92.5% and 76.9%
viability, T/C (compound 0.1 µM): 79.5% and 91.7%
viability, T/C (compound 0.316 µM): 64.9% and 66.6%
viability, T/C (compound 1 µM): 50.7% and 71.1%
viability, T/C (compound 3.16 µM): 45.5% and 46%
viability, T/C (compound 10 µM): 27.3% and 20.6%
IC50 (curve of compound): 1340 nM and 2680 nM

CC(C)CC(NC(=O)CNC(=O)c1cc(Cl)ccc1Cl)B1OC(=O)CC(CC(=O)O)(C(=O)O)O1 (stereo not drawn) + NC1CC1c1ccc(-c2cccc(O)c2)cc1
IC50 [1]: 11.8 nM
IC50 [2]: 8.59 nM
IC50 [3]: 8.37 nM
IC50 [4]: 10.1 nM
IC50 [5]: 9.49 nM
viability, T/C (second compound 0.1 µM, first compound 0.000316 µM): 94.3%
viability, T/C (second compound 0.1 µM, first compound 0.001 µM): 98.9%
viability, T/C [6]: 101%
viability, T/C [7]: 58.3%
viability, T/C [8]: 1.47%
viability, T/C [9]: 0.24%
viability, T/C (second compound 0.316 µM, first compound 0.000316 µM): 80.7%
viability, T/C (second compound 0.316 µM, first compound 0.001 µM): 95%
viability, T/C [12]: 115%
viability, T/C [13]: 42.8%
viability, T/C [14]: 4.55%
viability, T/C [15]: 0.6%
viability, T/C (second compound 1 µM, first compound 0.000316 µM): 92.5%
viability, T/C (second compound 1 µM, first compound 0.001 µM): 112%
viability, T/C [18]: 140%
viability, T/C [19]: 38.1%
viability, T/C [20]: 2.09%
viability, T/C [21]: 0.29%
viability, T/C (second compound 3.16 µM, first compound 0.000316 µM): 113%
viability, T/C (second compound 3.16 µM, first compound 0.001 µM): 104%
viability, T/C [24]: 126%
viability, T/C [25]: 50.3%
viability, T/C [26]: 2.37%
viability, T/C [27]: 0.26%
viability, T/C (second compound 10 µM, first compound 0.000316 µM): 110%
viability, T/C (second compound 10 µM, first compound 0.001 µM): 139%
viability, T/C [30]: 129%
viability, T/C [31]: 46.3%
viability, T/C [32]: 0.57%
viability, T/C [33]: 0.27%

CC(C)c1c(-c2ccccc2)nc2c(C#N)c[nH]n2c1=O
viability, T/C (compound 0.0316 µM): 106% and 89.1%
viability, T/C (compound 0.1 µM): 92.4% and 85.5%
viability, T/C (compound 0.316 µM): 92.8% and 89.8%
viability, T/C (compound 1 µM): 97.1% and 71.4%
viability, T/C (compound 3.16 µM): 84.7% and 52.7%
viability, T/C (compound 10 µM): 85.2% and 40.5%
IC50 (curve of compound): > 10000 nM and 3700 nM

Nc1ccn(C2OC(CO)C(O)C2(F)F)c(=O)n1 (stereo not drawn)
viability, T/C (compound 0.000949 µM): 80.2% and 102%
viability, T/C (compound 0.003 µM): 94.3% and 100%
viability, T/C (compound 0.00949 µM): 86.5% and 77.4%
viability, T/C (compound 0.03 µM): 82.4% and 55.1%
viability, T/C (compound 0.0949 µM): 80% and 59.3%
viability, T/C (compound 0.3 µM): 112% and 53.6%
IC50 (curve of compound): > 300 nM

O=C(c1cc(Cc2n[nH]c(=O)c3ccccc23)ccc1F)N1CCN(C(=O)C2CC2)CC1 + NC1CC1c1ccc(-c2cccc(O)c2)cc1
IC50 [1]: 9080 nM
IC50 [2]: 5150 nM
IC50 [3]: > 10000 nM
IC50 [4]: > 10000 nM
IC50 [5]: > 10000 nM
viability, T/C [8]: 72%
viability, T/C [9]: 74.9%
viability, T/C [10]: 68.4%
viability, T/C [11]: 68.5%
viability, T/C (second compound 0.1 µM, first compound 3.16 µM): 58.6%
viability, T/C (second compound 0.1 µM, first compound 10 µM): 49.5%
viability, T/C [14]: 68.6%
viability, T/C [15]: 73.7%
viability, T/C [16]: 66.2%
viability, T/C [17]: 57.6%
viability, T/C (second compound 0.316 µM, first compound 3.16 µM): 53.6%
viability, T/C (second compound 0.316 µM, first compound 10 µM): 45.7%
viability, T/C [20]: 76.5%
viability, T/C [21]: 77.3%
viability, T/C [22]: 70.9%
viability, T/C [23]: 64.8%
viability, T/C (second compound 1 µM, first compound 3.16 µM): 62.4%
viability, T/C (second compound 1 µM, first compound 10 µM): 57.4%
viability, T/C [26]: 78.8%
viability, T/C [27]: 79.8%
viability, T/C [28]: 82.4%
viability, T/C [29]: 70.7%
viability, T/C (second compound 3.16 µM, first compound 3.16 µM): 80%
viability, T/C (second compound 3.16 µM, first compound 10 µM): 60.6%
viability, T/C [32]: 81.5%
viability, T/C [33]: 81.1%
viability, T/C [34]: 80.3%
viability, T/C [35]: 93.3%
viability, T/C (second compound 10 µM, first compound 3.16 µM): 71.3%
viability, T/C (second compound 10 µM, first compound 10 µM): 87.1%
